Measurements from the supplement of paper PMC10331698.
± gives the standard deviation of the averaged measurements.

Tests used:
Assay in all cases: level (log10 ratio to DMSO vehicle control); higher = higher biomarker level / cell amount than vehicle control
Details in all cases: in DMSO
[1] = compound: C=C(C)C(=O)OCC(F)(F)C(F)(F)C(F)(F)C(F)(F)C(F)(F)C(F)(F)C(F)(F)F
Procedure: (§1)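 BioMAP Diversity Plus panel of 12 human primary cell co-culture systems (3C, 4H, LPS, SAg, BT, BF4T, BE3C, CASM3C, HDF3CGF, KF3CT, MyoF, Mphg). Compounds were added 1 h before stimulation and left for 24 h (MyoF 48 h; BT 72 h for soluble read-outs or 6 d for IgG). Biomarkers were read by ELISA, cytotoxicity by SRB, PBMC viability and proliferation by Alamar Blue. Each well value was divided by the mean of 8 DMSO control wells on the same plate and log10 transformed; duplicate blinded samples were tested at 4 concentrations.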

Azathioprine = compound: Cn1cnc([N+](=O)[O-])c1Sc1ncnc2[nH]cnc12 [Azathioprine]
Procedure: as §1

[2] = compound: O=C(O)CCC(F)(F)C(F)(F)C(F)(F)C(F)(F)C(F)(F)F [2H,2H,3H,3H-Perfluorooctanoic acid]
Procedure: as §1

[3] = compound: O=C(O)CCC(F)(F)C(F)(F)C(F)(F)F [3:3 Fluorotelomer carboxylic acid]
Procedure: as §1

[4] = compound: O=P(O)(O)CCC(F)(F)C(F)(F)C(F)(F)C(F)(F)C(F)(F)C(F)(F)C(F)(F)C(F)(F)F [((Perfluorooctyl)ethyl)phosphonic acid]
Procedure: as §1

1H,1H-Heptafluorobutanol = compound: OCC(F)(F)C(F)(F)C(F)(F)F [1H,1H-Heptafluorobutanol]
Procedure: as §1

| Test System | level (log10) ([1]; 6700 nM) | level (log10) ([1]; 20000 nM) | level (log10) (Azathioprine; 1400 nM) | level (log10) (Azathioprine; 4200 nM) | level (log10) (Azathioprine; 13000 nM) | level (log10) (Azathioprine; 38000 nM) | level (log10) ([2]; 6700 nM) | level (log10) ([2]; 20000 nM) | level (log10) ([2]; 60000 nM) | level (log10) ([3]; 6700 nM) | level (log10) ([3]; 20000 nM) | level (log10) ([3]; 60000 nM) | level (log10) ([4]; 6700 nM) | level (log10) ([4]; 20000 nM) | level (log10) ([4]; 60000 nM) | level (log10) (1H,1H-Heptafluorobutanol; 6700 nM) | level (log10) (1H,1H-Heptafluorobutanol; 20000 nM) | level (log10) (1H,1H-Heptafluorobutanol; 60000 nM) |
| --- | --- | --- | --- | --- | --- | --- | --- | --- | --- | --- | --- | --- | --- | --- | --- | --- | --- | --- |
| BE3C:CXCL9/MIG | 0.0015 ± 0.00071 | -0.0085 ± 0.0035 | -0.006 ± 0.0085 | 0.0005 ± 0.0035 | -0.0025 ± 0.013 | -0.0015 ± 0.013 | -0.003 | -0.008 ± 0.0057 | 0.0005 ± 0.0035 | 0.006 ± 0.0099 | 0.0055 ± 0.00071 | 0.01 ± 0.0014 | 0.0165 ± 0.0064 | 0.011 ± 0.0057 | 0.013 ± 0.021 | -0.001 | 0.0025 ± 0.0035 | 0.007 ± 0.0028 |
| BE3C:CXCL10/IP-10 | 0.0135 ± 0.018 | -0.004 ± 0.014 | 0.0015 ± 0.028 | 0.0115 ± 0.028 | 0.001 ± 0.024 | 0.001 ± 0.0085 | -0.009 ± 0.0042 | -0.006 ± 0.0028 | -0.0075 ± 0.005 | -0.0015 ± 0.005 | 0.0045 ± 0.015 | 0.013 ± 0.0099 | -0.0055 ± 0.0064 | -0.001 ± 0.0099 | -0.0045 ± 0.0078 | 0.0345 ± 0.023 | 0.0195 ± 0.035 | 0.0265 ± 0.032 |
| BE3C:CXCL11/I-TAC | -0.0085 ± 0.016 | -0.0095 ± 0.0021 | -0.0205 ± 0.035 | 0.008 ± 0.0028 | 0.01 ± 0.031 | 0.025 ± 0.051 | 0.0305 ± 0.016 | 0.0535 ± 0.012 | 0.036 ± 0.014 | -0.004 ± 0.021 | 0.0045 ± 0.005 | 0.0005 ± 0.0035 | -0.0285 ± 0.011 | -0.0225 ± 0.0064 | -0.0205 ± 0.0035 | 0.0065 ± 0.0035 | 0.0145 ± 0.023 | 0.0085 ± 0.023 |
| BE3C:EGFR | -0.0175 ± 0.011 | -0.0295 ± 0.011 | 0.007 ± 0.02 | -0.0125 ± 0.0035 | -0.0055 ± 0.005 | -0.0095 ± 0.019 | -0.004 ± 0.0042 | -0.0225 ± 0.029 | -0.008 ± 0.0099 | 0.006 ± 0.0057 | 0.0105 ± 0.013 | -0.0015 ± 0.005 | -0.025 ± 0.014 | -0.0355 ± 0.025 | -0.0345 ± 0.033 | 0.009 ± 0.014 | 0.0135 ± 0.022 | 0.016 ± 0.027 |
| BE3C:HLA-DR | 0.008 ± 0.0085 | 0.001 ± 0.013 | -0.0075 ± 0.021 | -0.0095 ± 0.0021 | -0.0165 ± 0.021 | -0.032 ± 0.044 | 0 ± 0.0042 | -0.009 ± 0.0071 | -0.0175 ± 0.012 | -0.0345 ± 0.035 | -0.018 ± 0.011 | -0.0225 ± 0.005 | -0.025 ± 0.0099 | -0.031 ± 0.013 | -0.0075 ± 0.013 | -0.0035 ± 0.0021 | 0.0105 ± 0.00071 | 0.02 ± 0.03 |
| BE3C:IL-1alpha | -0.008 ± 0.013 | 0.0405 ± 0.042 | -0.012 ± 0.0099 | 0.0045 ± 0.011 | -0.019 ± 0.0085 | -0.031 ± 0.051 | -0.0075 ± 0.0064 | -0.0125 ± 0.019 | -0.005 | 0.0135 ± 0.037 | 0.0255 ± 0.039 | 0.0155 ± 0.035 | -0.017 ± 0.016 | -0.019 ± 0.025 | 0.0085 ± 0.056 | 0.003 ± 0.011 | -0.0095 ± 0.022 | -0.0035 ± 0.018 |
| BF4T:CCL2/MCP-1 | -0.008 ± 0.035 | 0.0195 ± 0.013 | 0.0185 ± 0.015 | 0.0025 ± 0.019 | -0.006 ± 0.011 | -0.021 ± 0.0099 | 0.0285 ± 0.015 | -0.011 ± 0.031 | -0.0235 ± 0.096 | -0.0025 ± 0.0021 | -0.018 ± 0.0014 | -0.01 ± 0.041 | 0.0125 ± 0.019 | 0.0295 ± 0.026 | 0.061 ± 0.02 | -0.002 ± 0.018 | 0.003 ± 0.057 | -0.0135 ± 0.0021 |
| BF4T:CCL26/Eotaxin-3 | 0.002 ± 0.055 | -0.0155 ± 0.042 | 0.0215 ± 0.059 | 0.025 ± 0.058 | 0.007 ± 0.014 | -0.0025 ± 0.032 | -0.0305 ± 0.013 | -0.0615 ± 0.029 | -0.0695 ± 0.11 | -0.015 ± 0.018 | -0.0095 ± 0.026 | 0.009 ± 0.018 | -0.084 ± 0.0099 | -0.157 ± 0.018 | -0.14 ± 0.056 | 0.0275 ± 0.04 | 0.0405 ± 0.022 | 0.0315 ± 0.013 |
| BF4T:CD54/ICAM-1 | -0.0015 ± 0.016 | -0.0075 ± 0.0064 | 0.007 ± 0.02 | -0.0025 ± 0.013 | -0.012 ± 0.0071 | -0.0155 ± 0.022 | -0.0175 ± 0.018 | -0.0115 ± 0.0021 | -0.0075 ± 0.0092 | -0.0075 ± 0.0092 | 0.007 | -0.008 ± 0.0071 | 0.0035 ± 0.029 | 0.001 ± 0.031 | -0.0035 ± 0.046 | 0.0035 ± 0.0021 | 0.008 ± 0.0085 | 0.001 ± 0.013 |
| BF4T:CD90 | -0.0135 ± 0.0064 | -0.011 ± 0.0085 | -0.0025 ± 0.00071 | -0.0075 ± 0.0035 | -0.0305 ± 0.023 | -0.024 ± 0.018 | -0.018 ± 0.011 | -0.019 ± 0.0014 | -0.02 ± 0.02 | -0.0025 ± 0.005 | -0.009 ± 0.0014 | -0.0085 ± 0.013 | 0.001 ± 0.0099 | 0.0035 ± 0.005 | 0.014 ± 0.021 | -0.0035 ± 0.012 | -0.0045 ± 0.021 | -0.0045 ± 0.0035 |
| BF4T:CD106/VCAM-1 | 0.015 ± 0.014 | 0.0105 ± 0.05 | -0.0185 ± 0.015 | -0.026 ± 0.025 | -0.038 | -0.139 ± 0.016 | -0.011 ± 0.024 | -0.03 ± 0.0057 | -0.007 ± 0.093 | -0.012 ± 0.041 | 0.0075 ± 0.0078 | 0.0205 ± 0.018 | -0.009 ± 0.018 | 0.0185 ± 0.019 | 0.0205 ± 0.052 | -0.0155 ± 0.0021 | -0.0105 ± 0.019 | -0.005 ± 0.0071 |
| BF4T:CXCL8/IL-8 | 0.011 ± 0.013 | 0.007 ± 0.0099 | -0.013 ± 0.011 | -0.0325 ± 0.0064 | -0.0455 ± 0.016 | -0.0405 ± 0.016 | 0.0095 ± 0.035 | 0.033 ± 0.047 | 0.0645 ± 0.043 | -0.0125 ± 0.025 | -0.0155 ± 0.052 | -0.019 ± 0.031 | 0.0075 ± 0.012 | 0.026 ± 0.017 | 0.0325 ± 0.0092 | 0.019 ± 0.071 | 0.03 ± 0.071 | 0.034 ± 0.089 |
| BF4T:IL-1alpha | -0.0175 ± 0.025 | 0.006 ± 0.0099 | -0.0055 ± 0.019 | -0.0015 ± 0.0092 | -0.009 ± 0.0057 | 0.0005 ± 0.033 | -0.0035 ± 0.0078 | -0.0065 ± 0.016 | 0.017 ± 0.021 | -0.0035 ± 0.019 | -0.009 ± 0.02 | 0.003 | -0.0165 ± 0.015 | -0.001 ± 0.0028 | 0.015 ± 0.02 | -0.0125 ± 0.0092 | -0.016 | -0.007 ± 0.0042 |
| BF4T:Keratin 8/18 | 0.014 ± 0.0028 | -0.003 ± 0.0014 | 0.0075 ± 0.026 | -0.0055 ± 0.0035 | -0.0115 ± 0.013 | 0.0115 ± 0.026 | -0.0015 ± 0.015 | -0.0055 ± 0.0021 | 0.005 ± 0.024 | 0.004 ± 0.024 | -0.006 ± 0.0042 | 0.0135 ± 0.015 | -0.016 ± 0.017 | -0.0195 ± 0.005 | -0.0155 ± 0.042 | -0.036 ± 0.065 | -0.025 ± 0.037 | -0.019 ± 0.037 |
| BF4T:MMP-1 | -0.0075 ± 0.015 | 0.016 ± 0.011 | 0 ± 0.014 | -0.001 ± 0.0042 | -0.003 ± 0.0042 | 0.019 ± 0.025 | -0.003 ± 0.0042 | 0.001 ± 0.023 | 0.005 ± 0.021 | 0.0005 ± 0.0064 | -0.0065 ± 0.011 | -0.005 ± 0.027 | -0.005 ± 0.0014 | 0.0075 ± 0.022 | 0.007 ± 0.05 | 0.002 ± 0.013 | 0.0085 ± 0.00071 | -0.002 ± 0.018 |
| BF4T:MMP-3 | 0.002 ± 0.023 | -0.007 ± 0.018 | 0.01 ± 0.02 | -0.02 ± 0.018 | -0.015 ± 0.0057 | 0.0235 ± 0.052 | -0.0015 ± 0.019 | 0.0025 ± 0.0035 | 0.0235 ± 0.066 | 0.0285 ± 0.042 | 0.0005 ± 0.033 | 0.018 ± 0.023 | -0.013 ± 0.02 | 0.009 ± 0.011 | 0.014 ± 0.079 | 0.004 ± 0.016 | -0.0135 ± 0.012 | 0.0055 ± 0.04 |
| BF4T:MMP-9 | 0.015 ± 0.0071 | 0.0165 ± 0.005 | 0.0365 ± 0.087 | -0.001 ± 0.04 | 0.004 ± 0.021 | 0.0215 ± 0.023 | -0.0095 ± 0.03 | -0.022 ± 0.027 | 0.015 ± 0.018 | 0.0165 ± 0.07 | 0.002 ± 0.065 | 0.0285 ± 0.046 | -0.014 ± 0.0014 | -0.014 ± 0.011 | 0.0305 ± 0.021 | -0.03 ± 0.038 | -0.001 ± 0.011 | -0.0145 ± 0.0021 |
